Measured values from publication PMC8166343 (Biochemical Journal, 2021).

What was measured:
[1] = tested on: ING3 PHD; format: binding; details: 1 h, 4°C; pH 7.5
[2] = tested on: ING3 PHD finger; format: binding
[3] = tested on: TAF3 PHD finger; format: binding
[4] = tested on: SPIN1 TUDOR; format: binding; details: 1 h, 4°C; pH 7.5
[5] = tested on: KDM7A PHD finger; format: binding
[6] = tested on: PHF2 PHD finger; format: binding
[7] = tested on: Set7/9; format: biochemical; details: pH 8.5
[8] = tested on: endogenous SPIN1; format: binding; details: 1 h, 4°C
[9] = tested on: PHF23 PHD finger; format: binding
[10] = tested on: endogenous PHF2; format: binding; details: 1 h, 4°C
[11] = tested on: PHF2 PHD; format: binding; details: 1 h, 4°C; pH 7.5

Row | Substance | pull-down of GST-ING3 PHD [1] | interaction with ING3 PHD finger [2] | interaction with TAF3 PHD finger [3] | pull-down of GST-SPIN1 TUDOR [4] | interaction with KDM7A PHD finger [5] | interaction with PHF2 PHD finger [6] | methylation by Set7/9 [7] | enrichment of endogenous SPIN1 [8] | interaction with PHF23 PHD finger [9] | enrichment of endogenous PHF2 [10] | pull-down of GST-PHF2 PHD [11]
1 | PRRK(me3)QQAPRRSA-Biotin (PRRKQQAPRRSA) [TSHZ1 K4me3] | methylation-dependent interactions | bound | bound | interacted | – | – | – | – | – | – | –
2 | VRTK(me3)ADSVPGTY-Biotin [PCLAF K4me3] | – | – | – | – | only recognized KDM7A | – | – | – | – | – | –
3 | SRRK(me3)QGNPQHLS-Biotin [BCL11B K4me3] | – | – | interacted | interacted | interacted | interacted | could not methylate | enriched | selectively interacted | very weakly | strongly interacted
